# Experimental data taken from ChEMBL document CHEMBL1165964, “Design and synthesis of spirotryprostatin-inspired diketopiperazine systems from prolyl spirooxoindolethiazolidine derivatives” (Bioorg Med Chem, 2010).
# Activity calls are given as the source filed them. No cut-off for these calls is given here.
# Key:
# Format in all cases: functional, cell-based
# [1] = tested on: MCF7; assay: Cell cycle arrest in human MCF7 cells
# [2] = tested on: MCF7; assay: Cytotoxicity against human MCF7 cells at 100 uM after 48 hrs by MTT assay
# [3] = tested on: T47D; assay: Cytotoxicity against human T47D cells at 100 uM after 48 hrs by MTT assay
# [4] = tested on: A-431; assay: Cytotoxicity against human A431 cells at 100 uM after 48 hrs by MTT assay
# [5] = tested on: MCF7; assay: Cytotoxicity against human MCF7 cells after 48 hrs by MTT assay; conditions: MCF7, 48 h
# [6] = Cell cycle arrest in mouse tsFT210 cells assessed as accumulation of cells at G2/M phase
IC50 [6] [µM],SMILES,Activity [1],Activity [2],Activity [3],Activity [4],IC50 [5] [µM]
–,CN1C(=O)[C@@]2(SC[C@H]3C(=O)N4CCC[C@H]4C(=O)N32)c2ccccc21,inactive,inactive,inactive,inactive,–
–,O=C1[C@@H]2CS[C@]3(C(=O)Nc4ccccc43)N2C(=O)[C@@H]2CCCN12,inactive,inactive,inactive,inactive,–
–,CCOC(=O)[C@@]1(c2ccccc2N)SC[C@H]2C(=O)N3CCC[C@H]3C(=O)N21,–,–,–,–,14.8
–,O=C1[C@@H]2CS[C@@]3(C(=O)Nc4ccc(Br)cc43)N2C(=O)[C@@H]2CCCN12,inactive,inactive,inactive,inactive,–
–,O=C1[C@@H]2CS[C@@]3(C(=O)Nc4ccccc43)N2C(=O)[C@@H]2CCCN12,inactive,inactive,inactive,inactive,–
–,CN1C(=O)[C@]2(SC[C@H]3C(=O)N4CCC[C@H]4C(=O)N32)c2ccccc21,inactive,inactive,inactive,inactive,–
–,O=C1[C@@H]2CS[C@]3(C(=O)Nc4ccc(Br)cc43)N2C(=O)[C@@H]2CCCN12,inactive,inactive,inactive,inactive,–
–,Cc1ccc2c(c1)[C@@]1(SC[C@H]3C(=O)N4CCC[C@H]4C(=O)N31)C(=O)N2,inactive,inactive,inactive,inactive,–
–,CCOC(=O)[C@@]1(c2cc(Br)ccc2N)SC[C@H]2C(=O)N3CCC[C@H]3C(=O)N21,–,–,–,–,2.2
–,Cc1ccc2c(c1)[C@]1(SC[C@H]3C(=O)N4CCC[C@H]4C(=O)N31)C(=O)N2,inactive,inactive,inactive,inactive,–
198,COc1ccc2c(c1)NC(=O)[C@@]21C[C@H]2C(=O)N3CCC[C@H]3C(=O)N2[C@H]1C=C(C)C [SPIROTRYPROSTATIN A],–,–,–,–,–
–,CCOC(=O)[C@@]1(c2cc(C)ccc2N)SC[C@H]2C(=O)N3CCC[C@H]3C(=O)N21,–,–,–,–,1.6
